This passage reports IC50 results from patent US20250154127A1, “BICYCLIC HETEROARYL COMPOUNDS AND USES THEREOF” (ETERN BIOPHARMA (SHANGHAI) CO., LTD., priority 2022, published 2025).

A word on the IC50: it is the point on the concentration scale where inhibition reaches its midpoint. A low value points to greater potency in that assay.

Structures are written as SMILES.

Experiment [1] addresses TEAD1(210-426) binding to YAP(50-100) (Homo sapiens, UniProt P28347). Nature of the experiment: TR-FRET Assay for TEAD1(210-426) Binding to YAP(50-100). Conditions: His-TEAD 10 nM, YAP-Biotin peptide 50 nM. Put shortly:
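10 nM His-TEAD1 preincubated 30 min at room temperature with compound (3-fold dilutions, 12 points, 1% DMSO), then 50 nM biotin-YAP peptide added.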
For orientation: Time-resolved FRET reads energy transfer from a long-lived donor to a nearby acceptor.

The next experiment deals with MSTO-211H cells. Nature of the experiment: Proliferation Assay (CellTiter-Glo Luminescent Cell Viability Assay). Type of experiment: cell-based. Conditions: Homo sapiens, 96 hours treatment. A digest of the protocol:
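MSTO-211H cells, 1,500/well in RPMI 1640 with 10% FBS, plated overnight, then treated 96 h with 9-point 3-fold compound series in duplicate (DMSO below 0.5%). Viability by CellTiter-Glo luminescence; inhibition relative to DMSO wells, IC50 by four-parameter fit.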
In general terms: Cellular ATP, detected with luciferase, serves as a proxy for viable cell number.

TEAD1(210-426) binding to YAP(50-100), sequence (P28347 209-426): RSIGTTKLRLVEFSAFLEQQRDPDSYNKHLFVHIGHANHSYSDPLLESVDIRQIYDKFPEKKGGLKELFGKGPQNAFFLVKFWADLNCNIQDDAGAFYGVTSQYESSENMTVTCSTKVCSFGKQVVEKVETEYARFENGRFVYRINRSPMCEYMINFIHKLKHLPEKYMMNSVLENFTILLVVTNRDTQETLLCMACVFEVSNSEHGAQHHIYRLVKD

`Nc1cccc(Cn2ccc(-c3nn(-c4ccc(C(F)(F)F)cc4)c4ccccc34)cc2=O)n1` [Compound 60, 1-((6-aminopyridin-2-yl)methyl)-4-(1-(4-(trifluoromethyl)phenyl)-1H-indazol-3-yl)pyridin-2(1H)-one]: the IC50 in experiment [1] is no more than 100 nM; in the experiment with MSTO-211H cells, no more than 1000 nM.

As for `Nc1nccc(Cn2ccc(-c3nn(-c4ccc(C(F)(F)F)cc4)c4ccccc34)cc2=O)n1` [Compound 61, 1-((2-aminopyrimidin-4-yl)methyl)-4-(1-(4-(trifluoromethyl)phenyl)-1H-indazol-3-yl)pyridin-2(1H)-one], the IC50 was no more than 100 nM in experiment [1] and no more than 1000 nM in the experiment with MSTO-211H cells.

For the molecule `O=c1cc(-c2nn(-c3ccc(C(F)(F)F)cc3)c3ccccc23)ccn1Cc1cccnn1` [Compound 62, 1-(pyridazin-3-ylmethyl)-4-(1-(4-(trifluoromethyl)phenyl)-1H-indazol-3-yl)pyridin-2(1H)-one], the IC50 in experiment [1] is no more than 100 nM; with MSTO-211H cells, no more than 1000 nM.

As for `O=c1cc(-c2nn(-c3ccc(C(F)(F)F)cc3)c3ccccc23)ccn1Cc1cnccn1` [Compound 63, 1-(pyrazin-2-ylmethyl)-4-(1-(4-(trifluoromethyl)phenyl)-1H-indazol-3-yl)pyridin-2(1H)-one], the IC50 in experiment [1] is no more than 100 nM; with MSTO-211H cells it was no more than 1000 nM.

`Cn1ccc(Cn2ccc(-c3cn(-c4ccc(C(F)(F)F)cc4)c4ncccc34)cc2=O)n1` [Compound 64, 1-((1-methyl-1H-pyrazol-3-yl)methyl)-4-(1-(4-(trifluoromethyl)phenyl)-1H-pyrrolo[2,3-b]pyridin-3-yl)pyridin-2(1H)-one]: the results for the IC50 (in experiment [1]; in the experiment on MSTO-211H cells) were no more than 100 nM and no more than 1000 nM, respectively.

As for `Nc1cncc(Cn2ccc(-c3nn(-c4ccc(C(F)(F)F)cc4)c4ccccc34)cc2=O)n1` [Compound 65, 1-((6-aminopyrazin-2-yl)methyl)-4-(1-(4-(trifluoromethyl)phenyl)-1H-indazol-3-yl)pyridin-2(1H)-one], the IC50 was no more than 100 nM in experiment [1] and no more than 1000 nM in the experiment on MSTO-211H cells.

Consider `CN(C)c1nccc(Cn2ccc(-c3nn(-c4ccc(C(F)(F)F)cc4)c4ccccc34)cc2=O)n1` [Compound 66, 1-((2-(dimethylamino)pyrimidin-4-yl)methyl)-4-(1-(4-(trifluoromethyl)phenyl)-1H-indazol-3-yl)pyridin-2(1H)-one], for which the concentration for half-maximal inhibition (IC50) in experiment [1] is no more than 100 nM; in the experiment on MSTO-211H cells, no more than 1000 nM.

For `CNc1nccc(Cn2ccc(-c3nn(-c4ccc(C(F)(F)F)cc4)c4ccccc34)cc2=O)c1F` [Compound 67, 1-((3-fluoro-2-(methylamino)pyridin-4-yl)methyl)-4-(1-(4-(trifluoromethyl)phenyl)-1H-indazol-3-yl)pyridin-2(1H)-one], the IC50 is no more than 100 nM in experiment [1] and no more than 1000 nM in the experiment on MSTO-211H cells.

As for `COc1ccnc(Cn2ccc(-c3nn(-c4ccc(C(F)(F)F)cc4)c4ccccc34)cc2=O)n1` [Compound 68, 1-((4-methoxypyrimidin-2-yl)methyl)-4-(1-(4-(trifluoromethyl)phenyl)-1H-indazol-3-yl)pyridin-2(1H)-one], the IC50 in experiment [1] was no more than 100 nM; with MSTO-211H cells, no more than 1000 nM.

Turning to `CNc1ccnc(Cn2ccc(-c3nn(-c4ccc(C(F)(F)F)cc4)c4ccccc34)cc2=O)n1` [Compound 69, 1-((4-(methylamino)pyrimidin-2-yl)methyl)-4-(1-(4-(trifluoromethyl)phenyl)-1H-indazol-3-yl)pyridin-2(1H)-one], the IC50 was no more than 100 nM in experiment [1] and no more than 1000 nM in the experiment with MSTO-211H cells.

As for `CNc1ccnc(Cn2ccc(-c3nn(-c4ccc(C(F)(F)F)cc4)c4ncccc34)cc2=O)n1` [Compound 70, 1-((4-(methylamino)pyrimidin-2-yl)methyl)-4-(1-(4-(trifluoromethyl)phenyl)-1H-pyrazolo[3,4-b]pyridin-3-yl)pyridin-2(1H)-one], the figures for the IC50 (in experiment [1]; in the experiment on MSTO-211H cells) were no more than 100 nM and no more than 1000 nM, respectively.

With `O=c1cc(-c2nn(-c3ccc(C(F)(F)F)cc3)c3ccccc23)ccn1Cc1nccc(O)n1` [Compound 71], the values for the IC50 (in experiment [1]; with MSTO-211H cells) were no more than 100 nM and no more than 1000 nM, respectively.

Regarding `CN(CCO)c1nccc(Cn2ccc(-c3nn(-c4ccc(C(F)(F)F)cc4)c4ncccc34)cc2=O)n1` [Compound 72], the IC50 is no more than 100 nM in experiment [1] and no more than 1000 nM in the experiment on MSTO-211H cells.

With `O=c1cc(-c2nn(-c3ccc(C(F)(F)F)cc3)c3ncccc23)ccn1Cc1ccnc(NCCO)n1` [Compound 73, 1-((2-((2-hydroxyethyl)amino)pyrimidin-4-yl)methyl)-4-(1-(4-(trifluoromethyl)phenyl)-1H-pyrazolo[3,4-b]pyridin-3-yl)pyridin-2(1H)-one], the IC50 was no more than 100 nM in experiment [1] and no more than 1000 nM with MSTO-211H cells.

Turning to `O=c1cc(-c2nn(-c3ccc(C(F)(F)F)cc3)c3ncccc23)ccn1Cc1ccn(CCO)n1` [Compound 74, 1-((1-(2-hydroxyethyl)-1H-pyrazol-3-yl)methyl)-4-(1-(4-(trifluoromethyl)phenyl)-1H-pyrazolo[3,4-b]pyridin-3-yl)pyridin-2(1H)-one], the half-inhibitory concentration (IC50) in experiment [1] was no more than 100 nM; in the experiment with MSTO-211H cells, no more than 1000 nM.

On to `CN(CCO)c1ccnc(Cn2ccc(-c3nn(-c4ccc(C(F)(F)F)cc4)c4ncccc34)cc2=O)n1` [Compound 75, 1-((4-((2-hydroxyethyl)(methyl)amino)pyrimidin-2-yl)methyl)-4-(1-(4-(trifluoromethyl)phenyl)-1H-pyrazolo[3,4-b]pyridin-3-yl)pyridin-2(1H)-one], for which the 50% inhibitory concentration (IC50) in experiment [1] was no more than 100 nM; with MSTO-211H cells, no more than 1000 nM.

Consider `COCCNc1ccnc(Cn2ccc(-c3nn(-c4ccc(C(F)(F)F)cc4)c4ncccc34)cc2=O)n1` [Compound 76, 1-((4-((2-methoxyethyl)amino)pyrimidin-2-yl)methyl)-4-(1-(4-(trifluoromethyl)phenyl)-1H-pyrazolo[3,4-b]pyridin-3-yl)pyridin-2(1H)-one], for which the IC50 was no more than 100 nM in experiment [1] and no more than 1000 nM in the experiment with MSTO-211H cells.

Consider `COCCNc1ccnc(Cn2ccc(-c3nn(-c4ccc(C(F)(F)F)cc4)c4ccccc34)cc2=O)n1` [Compound 78, 1-((4-((2-methoxyethyl)amino)pyrimidin-2-yl)methyl)-4-(1-(4-(trifluoromethyl)phenyl)-1H-indazol-3-yl)pyridin-2(1H)-one], for which the IC50 was no more than 100 nM in experiment [1] and no more than 1000 nM with MSTO-211H cells.

As for `COc1ccnc(Cn2ccc(-c3cn(-c4ccc(C(F)(F)F)cc4)c4ncccc34)cc2=O)n1` [Compound 80, 1-((4-methoxypyrimidin-2-yl)methyl)-4-(1-(4-(trifluoromethyl)phenyl)-1 H-pyrrolo[2,3-b]pyridin-3-yl)pyridin-2(1H)-one], the IC50 in experiment [1] is no more than 100 nM; with MSTO-211H cells, no more than 1000 nM.

Consider `O=c1cc(-c2nn(-c3ccc(C(F)(F)F)cc3)c3ccccc23)ccn1Cc1nccc(OCCO)n1` [Compound 81, 1-((4-(2-hydroxyethoxy)pyrimidin-2-yl)methyl)-4-(1-(4-(trifluoromethyl)phenyl)-1H-indazol-3-yl)pyridin-2(1H)-one], for which the figures for the IC50 (in experiment [1]; in the experiment with MSTO-211H cells) were no more than 100 nM and no more than 1000 nM, respectively.

On to `COCCOc1nccc(Cn2ccc(-c3nn(-c4ccc(C(F)(F)F)cc4)c4ccccc34)cc2=O)n1` [Compound 82, 1-((2-(2-methoxyethoxy)pyrimidin-4-yl)methyl)-4-(1-(4-(trifluoromethyl)phenyl)-1H-indazol-3-yl)pyridin-2(1H)-one], for which the IC50 was no more than 100 nM in experiment [1] and no more than 1000 nM in the experiment with MSTO-211H cells.
